Here are results for 18 compounds from patent publication US10167272B2, “Muscarinic agonists” (Heptares Therapeutics Limited, priority 2015, dated 2019).

Where two headings read alike, the source gives them in different places.

Common to all, as to format: cell-based
The target in test [1] is T1, human muscarinic M1 receptor (Homo sapiens, UniProt P11229).
T1 sequence (P11229 1-460): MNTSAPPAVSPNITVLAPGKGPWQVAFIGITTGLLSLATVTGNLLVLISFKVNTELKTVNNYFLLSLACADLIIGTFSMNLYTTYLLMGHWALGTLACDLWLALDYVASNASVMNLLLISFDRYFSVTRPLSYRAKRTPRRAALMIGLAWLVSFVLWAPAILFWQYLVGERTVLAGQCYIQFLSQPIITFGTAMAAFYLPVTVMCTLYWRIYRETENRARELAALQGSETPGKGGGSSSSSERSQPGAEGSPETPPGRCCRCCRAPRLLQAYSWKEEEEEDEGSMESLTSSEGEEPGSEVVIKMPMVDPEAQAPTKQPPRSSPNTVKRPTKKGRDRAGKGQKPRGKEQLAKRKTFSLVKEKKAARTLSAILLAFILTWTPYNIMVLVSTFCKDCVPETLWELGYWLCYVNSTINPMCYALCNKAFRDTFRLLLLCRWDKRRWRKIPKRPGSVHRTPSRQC
Kind of test: Alphascreen Surefire phospho-ERK1/2 functional assay, M1. Conditions: phospho-ERK1/2; for EC50 / % Emax cf. ACh (M1): CHO cells stably expressing human M1; for EC50: read-out: pEC50 M1 (converted); for Emax: CHO, read-out: % Emax cf. ACh (M1), CHO cells stably expressing human M1; for Emax / % Emax cf. ACh (M1): relative to ACh. Here is the method: (§1) ERK1/2 phosphorylation is a downstream consequence of both Gq/11 and Gi/o protein coupled receptor activation, making it highly suitable for the assessment of M1, M3 (Gq/11 coupled) and M2, M4 receptors (Gi/o coupled), rather than using different assay formats for different receptor subtypes. CHO cells stably expressing the human muscarinic M1, M2, M3 or M4 receptor were plated (25K/well) onto 96-well tissue culture plates in MEM-alpha+10% dialysed FBS. Once adhered, cells were serum-starved overnight. Agonist stimulation was performed by the addition of 5 μL agonist to the cells for 5 min (37° C.). Media was removed and 50 μL of lysis buffer added. After 15 min, a 4 μL sample was transferred to 384-well plate and 7 μL of detection mixture added.
A general note: Alpha assays give light when donor and acceptor beads are brought close together.

For test [2], the target named is T2, human muscarinic M2 receptor (Homo sapiens, UniProt P08172).
T2 sequence (P08172 1-466): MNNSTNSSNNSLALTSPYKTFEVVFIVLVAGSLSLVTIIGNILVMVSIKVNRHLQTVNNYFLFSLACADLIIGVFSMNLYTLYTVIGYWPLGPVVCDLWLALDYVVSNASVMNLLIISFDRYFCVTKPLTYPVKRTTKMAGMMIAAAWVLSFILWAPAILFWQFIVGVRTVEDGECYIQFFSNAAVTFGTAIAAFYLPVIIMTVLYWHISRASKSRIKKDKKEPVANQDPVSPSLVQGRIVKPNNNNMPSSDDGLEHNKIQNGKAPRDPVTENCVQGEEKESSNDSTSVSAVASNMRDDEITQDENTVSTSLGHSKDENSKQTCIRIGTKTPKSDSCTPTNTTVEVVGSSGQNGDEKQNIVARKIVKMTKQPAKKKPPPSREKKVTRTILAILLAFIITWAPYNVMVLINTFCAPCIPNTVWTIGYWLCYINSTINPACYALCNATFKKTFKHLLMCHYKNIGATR
The test can be described thus: Alphascreen Surefire phospho-ERK1/2 functional assay, M2. Conditions: for EC50: CHO cells stably expressing human M2, read-out: pEC50 M2 (converted); for Emax: CHO, read-out: % Emax cf. ACh (M2), CHO cells stably expressing human M2, relative to ACh. Here is the method:
as §1

In test [3] the target is T3, human muscarinic M3 receptor (Homo sapiens, UniProt P20309).
T3 construct: expressed in transfected cells
The test can be described thus: Alphascreen Surefire phospho-ERK1/2 functional assay, M3. Conditions: for EC50: CHO cells stably expressing human M3, read-out: pEC50 M3 (converted); for Emax: CHO. The method, then:
as §1

In test [4] the target is T4, human muscarinic M4 receptor (Homo sapiens, UniProt P08173).
T4 construct: expressed in transfected cells
T4 sequence (P08173 1-479): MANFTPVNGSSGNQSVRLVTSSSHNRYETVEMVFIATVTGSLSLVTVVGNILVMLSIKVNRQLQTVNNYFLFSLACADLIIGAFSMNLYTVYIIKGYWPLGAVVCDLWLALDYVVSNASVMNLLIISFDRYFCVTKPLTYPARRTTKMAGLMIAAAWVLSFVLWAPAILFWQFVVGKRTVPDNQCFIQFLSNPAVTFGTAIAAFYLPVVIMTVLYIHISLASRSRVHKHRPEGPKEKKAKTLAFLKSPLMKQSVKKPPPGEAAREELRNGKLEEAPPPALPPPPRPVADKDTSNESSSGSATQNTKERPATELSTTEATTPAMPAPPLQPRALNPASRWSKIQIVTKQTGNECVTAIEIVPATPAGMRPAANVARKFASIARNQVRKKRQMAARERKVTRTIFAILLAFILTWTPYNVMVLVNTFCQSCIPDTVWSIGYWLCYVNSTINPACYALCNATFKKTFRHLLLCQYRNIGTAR
The test can be described thus: Alphascreen Surefire phospho-ERK1/2 functional assay, M4. Conditions: for EC50 / % Emax cf. ACh (M4): CHO cells stably expressing human M4; for EC50: read-out: pEC50 M4 (converted); for Emax: CHO.

Where [5] appears, read: read-out: % Emax cf. ACh (M3), CHO cells stably expressing human M3, phospho-ERK1/2, relative to ACh.
Where [6] appears, read: read-out: % Emax cf. ACh (M4), CHO cells stably expressing human M4, phospho-ERK1/2, relative to ACh.
[7] abbreviates: phospho-ERK1/2, relative to ACh.

T3 sequence (P20309 whole entry): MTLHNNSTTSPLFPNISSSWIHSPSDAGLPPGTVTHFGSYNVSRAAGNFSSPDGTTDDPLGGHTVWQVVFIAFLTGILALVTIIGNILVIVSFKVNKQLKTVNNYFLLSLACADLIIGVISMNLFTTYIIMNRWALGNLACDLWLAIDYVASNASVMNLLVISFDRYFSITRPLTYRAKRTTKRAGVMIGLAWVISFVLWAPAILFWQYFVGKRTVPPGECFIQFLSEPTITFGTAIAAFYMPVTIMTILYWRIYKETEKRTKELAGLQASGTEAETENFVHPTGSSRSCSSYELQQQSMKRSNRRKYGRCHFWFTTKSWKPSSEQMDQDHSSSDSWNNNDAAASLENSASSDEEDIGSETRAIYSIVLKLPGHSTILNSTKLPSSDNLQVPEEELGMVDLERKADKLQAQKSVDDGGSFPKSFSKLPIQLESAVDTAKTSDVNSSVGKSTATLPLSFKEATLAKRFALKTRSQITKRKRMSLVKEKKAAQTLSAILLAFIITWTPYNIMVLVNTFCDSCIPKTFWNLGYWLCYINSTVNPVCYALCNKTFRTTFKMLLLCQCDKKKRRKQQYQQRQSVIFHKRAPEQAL

What is called Emax is the size of the effect at its maximum, as opposed to the concentration needed. In the case of `CCN(C(C)=O)C1CCN(C2CCC3(C2)CN(C(=O)OC)C3)CC1` (single isomer, unassigned) [3-2 Isomer 2], the EC50 in test [1] was 0.316 µM; in test [2] it was more than 20 µM; in test [3] (phospho-ERK1/2), more than 20 µM; in test [4] (phospho-ERK1/2), 0.0316 µM. The maximal response (Emax) in test [1] is 42%; in test [2] it was 29%; in test [3] (setting [5]), 37%; in test [4] (setting [6]) it was 94%.

On to `CCOC(=O)N1CCC2(CC(N3CCC(N(CCO)CC(F)(F)F)CC3)C2)C1` (single isomer, unassigned) [2-51 Isomer 2], for which the EC50 is 0.316 µM in test [1], more than 20 µM in test [2], more than 20 µM in test [3] (phospho-ERK1/2) and 0.02 µM in test [4] (phospho-ERK1/2). In addition, the Emax in test [1] stood at 84%; in test [2] it was 18%; in test [3] (setting [5]), 22%; in test [4] (setting [6]), 89%.

Turning to `[2H]C([2H])(C)OC(=O)N1CCC2(CC(N3CCC(N(CC)C(C)=O)CC3)C2)C1` (single isomer, unassigned) [2-38 Isomer 2], the EC50 in test [1] was 0.631 µM; in test [2], more than 20 µM; in test [3] (phospho-ERK1/2), more than 20 µM; in test [4] (phospho-ERK1/2) it was 0.02 µM. The Emax is 76% in test [1], 21% in test [2], 1% in test [3] (setting [5]) and 115% in test [4] (setting [6]).

In the case of `CCOC(=O)N1CCC2(CC(N3CCC(N(OC)C(C)=O)CC3)C2)C1` (single isomer, unassigned) [2-32 Isomer 2], the EC50 was 2.51 µM in test [1], more than 20 µM in test [2], more than 20 µM in test [3] (phospho-ERK1/2) and 0.0398 µM in test [4] (phospho-ERK1/2). In addition, the Emax stood at 82% in test [1], 9% in test [2], 5% in test [3] (setting [5]) and 115% in test [4] (setting [6]).

In the case of `CC(=O)OCC[N+](C)(C)C` [ACh, acetylcholine, reference compound], the values for the Emax in test [3] (read-out: % Emax cf. ACh (M3)) and in test [4] (read-out: % Emax cf. ACh (M4)) were 115% and 110%, respectively.

Regarding `CCOC(=O)N1CCC2(CC(N3CCC(N(CC)OC)CC3)C2)C1` (single isomer, unassigned) [2-57 Isomer 2], the EC50 in test [1] was 1 µM; in test [2] it was more than 20 µM; in test [3] (phospho-ERK1/2), more than 20 µM; in test [4] (phospho-ERK1/2) it was 0.0398 µM. In addition, the maximum response (Emax) in test [1] is 40%; in test [2] it was 11%; in test [3] (setting [5]) it was 23%; in test [4] (setting [6]) it was 107%.

`CCOC(=O)N1CCC2(CC(N3CCC(N(CC)C(=O)OCC)CC3)C2)C1` (single isomer, unassigned) [2-40 Isomer 2]: the EC50 in test [1] is 0.501 µM; in test [2], more than 20 µM; in test [3] (phospho-ERK1/2), more than 20 µM; in test [4] (phospho-ERK1/2), 0.0631 µM. For the same compound, the Emax in test [1] stood at 39%; in test [2] it was 32%; in test [3] (setting [5]), 9%; in test [4] (setting [6]), 110%.

With `CCOC(=O)N1CCC2(CC(N3CCC(N(CC(F)(F)F)C4COC4)CC3)C2)C1` (single isomer, unassigned) [2-54 Isomer 2], the EC50 was 0.251 µM in test [1], more than 20 µM in test [2], more than 20 µM in test [3] (phospho-ERK1/2) and 0.0316 µM in test [4] (phospho-ERK1/2). Moreover, the Emax in test [1] came to 106%; in test [2] it was 28%; in test [3] (setting [5]), 20%; in test [4] (setting [6]), 98%.

For the compound `CCOC(=O)N1CCC2(CC(N3CCC(N(Cc4ccccc4)C(C)=O)CC3)C2)C1` (single isomer, unassigned) [2-35 Isomer 2], the EC50 in test [1] is 0.0398 µM; in test [2], more than 20 µM; in test [3] (phospho-ERK1/2), more than 20 µM; in test [4] (phospho-ERK1/2), 0.126 µM. Moreover, the Emax in test [1] is 85%; in test [2] it was 21%; in test [3] (setting [5]) it was 34%; in test [4] (setting [6]) it was 72%.

For the compound `CCOC(=O)N1CCC2(CC(N3CCC(C(C)(C)N(CC)C(C)=O)CC3)C2)C1` (single isomer, unassigned) [2-64 Isomer 2], the EC50 in test [1] is 2.51 µM; in test [2] it was more than 20 µM; in test [3] (phospho-ERK1/2), more than 20 µM; in test [4] (phospho-ERK1/2), 0.0316 µM. Also, the Emax in test [1] is 46%; in test [2] it was 2%; in test [3] (setting [5]) it was 4%; in test [4] (setting [6]) it was 128%.

Consider `CCOC(=O)N1CCC2(CC(N3CCC(N(C(C)=O)C4(C)CCC4)CC3)C2)C1` (single isomer, unassigned) [2-22 Isomer 2], for which the results for the EC50 in test [1] and in test [4] (phospho-ERK1/2) were 0.316 µM and 0.0794 µM, respectively. Further, the Emax in test [1] stood at 132%; in test [4] (setting [6]), 139%.

As to `CCOC(=O)N1CCC2(CC(N3CCC(C(C)n4cccn4)CC3)C2)C1` (single isomer, unassigned) [2-65 Isomer 1a], in test [1], the EC50 is 7.94 µM and the Emax is 45%. Moreover, the EC50 in test [4] (phospho-ERK1/2) is more than 20 µM. Also, in test [4] (setting [7]), the “% Emax cf. ACh (M4)” value was 14%.

For the compound `CCOC(=O)N1CCC2(CC(N3CCC(N(CC4(O)CCC4)C(C)=O)CC3)C2)C1` (single isomer, unassigned) [2-31 Isomer 2], the EC50 is 0.398 µM in test [1] and 0.0398 µM in test [4] (phospho-ERK1/2). Moreover, in test [1], the “% Emax cf. ACh (M1)” value is given as 78%. Besides, the “% Emax cf. ACh (M4)” value in test [4] (setting [7]) was found to be 95%.

Take `CCOC(=O)N1CCC2(CC(N3CCC(N(CC)C4COC4)CC3)C2)C1` (single isomer, unassigned) [2-53 Isomer 2]: the results for the EC50 in test [1] and in test [4] (phospho-ERK1/2) were more than 20 µM and 0.251 µM, respectively. The Emax came out at 42% in test [1] and 62% in test [4] (setting [6]).

With `CCOC(=O)N1CCC2(CC(N3CCC(N(C(C)=O)C4CC(F)(F)C4)CC3)C2)C1` (single isomer, unassigned) [2-28 Isomer 2], the results for the EC50 in test [1] and in test [4] (phospho-ERK1/2) were 0.158 µM and 0.251 µM, respectively. Further, the Emax was 124% in test [1] and 80% in test [4] (setting [6]).

As to `CCOC(=O)N1CCC2(CC(N3CCC(N(CCO)C4CCC4)CC3)C2)C1` (single isomer, unassigned) [2-50 Isomer 2], the values for the EC50 in test [1] and in test [4] (phospho-ERK1/2) were more than 20 µM and 0.251 µM, respectively. Moreover, the Emax was found to be 17% in test [1] and 70% in test [4] (setting [6]).

In the case of `CCCN(C(C)=O)C1CCN(C2CC3(CCN(C(=O)OCC)C3)C2)CC1` (single isomer, unassigned) [2-18 Isomer 2], the EC50 was 2 µM in test [1] and 0.2 µM in test [4] (phospho-ERK1/2). Further, the Emax turned out to be 89% in test [1] and 107% in test [4] (setting [6]).

With `CCOC(=O)N1CCC2(CC(N3CCC(N(CC4(O)CCC4)C(C)=O)CC3)C2)C1` (single isomer, unassigned) [2-31 Isomer 1], in test [1], the EC50 was 3.98 µM and the “% Emax cf. ACh (M1)” value was determined as 27%. Also, the EC50 in test [4] (phospho-ERK1/2) was 0.2 µM. In addition, in test [4] (setting [7]), the “% Emax cf. ACh (M4)” value was found to be 62%.
